The target of data set [1] is T1, EeAChE (Electrophorus electricus, UniProt O42275).
T1 construct: purchased Sigma-Aldrich
Description: biochemical. The data set is classed as biochemical. The following applies: for IC50: mean ± SD, n = 3. How it is done:
(§1) The enzymes and reagents for biochemical assays were obtained from Sigma-Aldrich. Kinetic assays of cholinesterase activity were performed using Ellman’s method and analyzed as previously described. Briefly, in the microplate assay the reaction mixture contained phosphate buffer (0.1 M, pH 8.0), AChE or BChE solution (0.3 or 0.15 U/mL respectively), 5,5′-dithiobis-(2-nitrobenzoic) acid (DTNB; 1.5 mM), and inhibitor dissolved in 1% DMSO at the desired concentrations or DMSO alone (control) in a final volume of 0.2 mL. […] The activity of the enzymes was performed at 25 °C.
(§2) Acetylcholinesterase was from Electrophorus electricus (EeAChE), while butylcholinesterase was from equine serum (eqBChE) or human serum (hBChE).
(§3) IC50 values were calculated by the interpolation of dose-response curves using GraphPad Prism 6 (Graphpad Software, San Diego, California, USA).

Data set [2] concerns the target T2, eqBChE (Equus caballus, UniProt P81908).
T2 construct: butylcholinesterase was from equine serum (eqBChE); purchased Sigma-Aldrich; host or cells: equine serum
Description: biochemical. The following applies: for Selectivity to eqBChE: IC50 for AChE/IC50 for BChE; for IC50: mean ± SD, n = 3. The data set is classed as biochemical. On the procedure: as §1, §2, §3

A short description of data set [3]: ABTS radical-scavenging antioxidant assay. As to conditions: mean ± SD of three independent experiments. On the procedure:
Total free radical-scavenging capacity of the compounds was determined by ABTS^.+ [2,2′-azinobis-(3-ethylbenzothiazoline-6-sulfonic acid)] method using Trolox as antioxidant standard, as previously reported.

Data set [4] deals with T3, hBChE (Homo sapiens, UniProt P06276).
T3 construct: butylcholinesterase was from equine serum (eqBChE) or human serum (hBChE); purchased Sigma-Aldrich; host or cells: human serum
Description: Cholinesterase assay (Ellman's method), hBChE. The data set is classed as biochemical. The following applies: for IC50: mean ± SD, n = 3; for hBChE inhibitory activity, times more active than galantamine: relative to reference compound galantamine, same assay conditions. How it is done:
as §1, §2, §3
Background: In Ellman's method for cholinesterases, released thiocholine reacts with DTNB.

The target in data set [5] is T2, eqBChE. Description: Kinetic study of eqBChE inhibition (Lineweaver-Burk plots). The data set is classed as biochemical. As to conditions: for type of inhibition: Lineweaver-Burk plot analysis; for KIS (binding with the enzyme-substrate complex): secondary plot of 1/Vmax versus compound concentration; for KIS (binding with the enzyme-substrate complex) / Ki: substrate BTCI; for Ki: secondary plot of slope (Km/Vmax) versus compound concentration, read-out: KI (binding with the free enzyme). On the procedure:
. Further to evaluate the selective characteristics and type of inhibition, we investigated the kinetic behaviour of eqBChE at different concentration of S-butyrylthiocholine iodide (BTCI) and inhibitors by Lineweaver-Burk plot analysis (Fig. 2).
The enzymes and reagents for biochemical assays were obtained from Sigma-Aldrich. Kinetic assays of cholinesterase activity were performed using Ellman’s method and analyzed as previously described. Briefly, in the microplate assay the reaction mixture contained phosphate buffer (0.1 M, pH 8.0), AChE or BChE solution (0.3 or 0.15 U/mL respectively), 5,5′-dithiobis-(2-nitrobenzoic) acid (DTNB; 1.5 mM), and inhibitor dissolved in 1% DMSO at the desired concentrations or DMSO alone (control) in a final volume of 0.2 mL. Finally, acetylthiocholine iodide (ATCI) or S-butyrylthiocholine iodide (BTCI) (1.5 mM) as the substrate was added to the reaction mixture and the absorbance immediately monitored at 405 nm. The activity of the enzymes was performed at 25 °C.
Kinetic characterization was performed by constructing Lineweaver-Burk plots by plotting 1/V vs 1/[S] in the presence of different concentrations of inhibitor and substrate. Kinetics constants were determined by the replots of the Slopes (KM/Vmax) or 1/Vmax versus the inhibitor concentration.

In data set [6] the test system is NSC-34 cells. Description: MTT cell viability assay. The following applies: 0–100 μM, 24 h, at the concentration in which eqBChE activity was inhibited. The data set is classed as cell-based, Mouse. On the procedure:
After obtaining encouraging results from the inhibitory assay experiments, biosafety effectiveness of the two promising compounds (15 and 17) was further evaluated. Cells were treated with different concentration of each compound (0–100 μM) for 24 h and their potential cytotoxic effect on NSC-34 cells was determined by using MTT assay. Viability of the cells treated with the compounds 15 and 17 and comparison to the control cells were performed (Fig. 4).
Mouse motor neuron like cell line (NSC-34) was purchased from the American Type Culture Collection (ATCC, Manassas, Virginia, USA). The cells were cultured in Dulbecco’s Modified Eagle Medium (DMEM) containing 10% fetal bovine serum (FBS; Gibco, NY, USA), and 1% penicillin/streptomycin at 37 °C in a humidified atmosphere with 5% CO2. Cell viability was detected by the colorimetric 3-(4,5-dimethylthiazol-2-yl)-2,5-diphenyltetrazolium bromide (MTT) assay. This is a colorimetric assay for measuring the activity of mitochondrial enzymes in living cells that convert MTT into purple formazan crystals. Briefly, cells were seeded in a 96-well plate (10^4 cells/well) and incubated with samples at concentration ranging from 10 to 100 μM for […]. […] The resulting violet formazan precipitates were dissolved in isopropanol and the absorbance of each well was determined at 590 nm using a microplate reader with a 630 nm reference.
For orientation: Tetrazolium dyes change colour on reduction, which living cells bring about.

The test system of data set [7] is BChE. As to conditions: previous study ref 34; cited from earlier work.

SMILES strings stand for the structures.

The source of these data is paper PMC5849682, “Novel 2-pheynlbenzofuran derivatives as selective butyrylcholinesterase inhibitors for Alzheimer’s disease” (Scientific Reports, 2018).

For orientation: IC50 means the concentration needed to halve the response being measured. By EC50 is commonly meant the midpoint of the concentration-response curve. Low readings indicate an effect from little substance, high ones a need for much substance. The Ki is the dissociation constant of the complex between target and ligand, obtained from inhibition or displacement.

T3 sequence (P06276 29-602): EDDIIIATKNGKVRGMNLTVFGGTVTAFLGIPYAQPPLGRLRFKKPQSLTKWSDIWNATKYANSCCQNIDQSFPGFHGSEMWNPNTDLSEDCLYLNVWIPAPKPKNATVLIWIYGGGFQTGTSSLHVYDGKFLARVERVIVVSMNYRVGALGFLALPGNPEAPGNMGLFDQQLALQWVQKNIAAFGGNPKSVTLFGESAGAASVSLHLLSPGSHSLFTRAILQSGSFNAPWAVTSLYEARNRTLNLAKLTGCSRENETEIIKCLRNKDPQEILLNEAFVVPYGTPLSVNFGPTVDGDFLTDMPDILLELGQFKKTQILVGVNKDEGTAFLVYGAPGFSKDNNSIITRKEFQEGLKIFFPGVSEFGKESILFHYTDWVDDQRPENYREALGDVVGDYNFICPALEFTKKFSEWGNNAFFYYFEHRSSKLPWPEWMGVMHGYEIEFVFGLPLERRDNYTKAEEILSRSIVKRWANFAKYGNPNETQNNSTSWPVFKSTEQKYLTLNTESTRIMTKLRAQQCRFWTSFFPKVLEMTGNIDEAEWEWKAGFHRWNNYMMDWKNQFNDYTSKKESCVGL
T2 sequence (P81908 whole entry): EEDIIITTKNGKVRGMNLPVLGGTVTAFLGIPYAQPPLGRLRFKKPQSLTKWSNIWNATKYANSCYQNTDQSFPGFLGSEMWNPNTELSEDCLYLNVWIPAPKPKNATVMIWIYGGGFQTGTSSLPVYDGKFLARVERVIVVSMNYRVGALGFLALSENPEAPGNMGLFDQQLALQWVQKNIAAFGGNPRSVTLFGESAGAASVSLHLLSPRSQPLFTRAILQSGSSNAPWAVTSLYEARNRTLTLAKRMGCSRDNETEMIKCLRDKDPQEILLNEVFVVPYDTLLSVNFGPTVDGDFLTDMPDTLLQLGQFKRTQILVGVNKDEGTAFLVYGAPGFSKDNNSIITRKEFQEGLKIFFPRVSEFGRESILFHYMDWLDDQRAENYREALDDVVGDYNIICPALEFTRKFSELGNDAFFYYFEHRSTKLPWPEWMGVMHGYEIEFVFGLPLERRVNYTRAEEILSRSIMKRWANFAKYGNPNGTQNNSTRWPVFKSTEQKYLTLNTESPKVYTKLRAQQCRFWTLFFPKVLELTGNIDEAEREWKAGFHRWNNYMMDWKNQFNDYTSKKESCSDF
T1 sequence (O42275 24-633): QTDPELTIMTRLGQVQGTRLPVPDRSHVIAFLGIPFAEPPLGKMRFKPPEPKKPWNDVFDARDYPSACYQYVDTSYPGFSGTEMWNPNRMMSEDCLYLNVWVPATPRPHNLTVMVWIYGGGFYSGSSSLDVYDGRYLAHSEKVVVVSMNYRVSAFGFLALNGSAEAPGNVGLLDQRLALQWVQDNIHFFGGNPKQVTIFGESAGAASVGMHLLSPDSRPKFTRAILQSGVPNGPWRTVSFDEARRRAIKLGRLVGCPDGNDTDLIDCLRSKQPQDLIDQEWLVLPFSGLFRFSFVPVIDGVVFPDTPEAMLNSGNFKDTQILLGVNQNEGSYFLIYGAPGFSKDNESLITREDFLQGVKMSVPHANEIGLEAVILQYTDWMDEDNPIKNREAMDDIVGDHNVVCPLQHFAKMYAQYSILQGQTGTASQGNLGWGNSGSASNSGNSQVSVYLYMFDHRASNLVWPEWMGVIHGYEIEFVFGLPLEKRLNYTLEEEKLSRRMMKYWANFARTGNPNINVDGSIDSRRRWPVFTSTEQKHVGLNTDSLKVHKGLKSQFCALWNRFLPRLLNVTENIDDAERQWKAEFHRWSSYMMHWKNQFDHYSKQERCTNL

The molecule `Oc1cc(-c2cc3cc(Br)ccc3o2)cc(O)c1O` [Compound 25] displayed a concentration for half-maximal inhibition (IC50) in data set [1] of 25 ± 1.9 µM. Besides, in data set [2], the “Selectivity to eqBChE” value is given as 0.90 and half-maximal inhibition (IC50) required 27.6 ± 1.9 µM. Moreover, the EC50 in data set [3] was 9.46 ± 0.68 µM.

`Oc1cc(O)cc(-c2cc3ccccc3o2)c1` [Compound 21] displayed an IC50 in data set [1] of over 100 µM. In data set [2], the “Selectivity to eqBChE” value is over 4.0 and the IC50 turned out to be 25.2 ± 1.3 µM. The molecule further displayed an EC50 in data set [3] of 23.2 ± 1.54 µM.

`Oc1cc(O)cc(-c2cc3cccc(Br)c3o2)c1` [Compound 17] displayed an IC50 in data set [1] of 100 ± 6.1 µM. Also, in data set [2], the “Selectivity to eqBChE” value is listed as 28.0 and the midpoint of inhibition, the IC50, lay at 3.57 ± 0.25 µM. Also, the “eqBChE inhibitory activity, times more active than galantamine” value in data set [2] (relative to reference compound galantamine) is given as about 8 times. Also, in data set [4], the IC50 amounted to 27.5 ± 1.53 µM and the “hBChE inhibitory activity, times more active than galantamine” value is reported as 2 times. For the same molecule, in data set [5], the type of inhibition entry is on record as “non-competitive inhibitor”, the “KIS (binding with the enzyme-substrate complex)” value amounted to 4.7 µM and the Ki amounted to 4.3 µM. Besides, the EC50 in data set [3] is 16.7 ± 1.31 µM. The cytotoxic effect result in data set [6] is on record as “no considerable cytotoxic effect”.

In data set [1], `Cc1ccc2oc(-c3cc(O)cc(O)c3)cc2c1` [Compound 20] gave an IC50 of over 100 µM. In addition, in data set [2], the “Selectivity to eqBChE” value is listed as over 8.0 and the midpoint of inhibition, the IC50, lay at 12.5 ± 1.29 µM. The EC50 in data set [3] came out at 18.2 ± 0.86 µM.

The molecule `Oc1cc(-c2cc3cc(Cl)ccc3o2)cc(O)c1O` [Compound 23] returned an IC50 in data set [1] of 30 ± 2.8 µM. Moreover, in data set [2], the “Selectivity to eqBChE” value amounted to 0.78 and the IC50 is 38.2 ± 2.4 µM. Also, the EC50 in data set [3] amounted to 12.5 ± 0.44 µM.

In turn, `Cc1cccc2cc(-c3cc(O)c(O)c(O)c3)oc12` [Compound 26] gave a half-inhibitory concentration (IC50) in data set [1] of 66 ± 5.4 µM. Further, in data set [2], the “Selectivity to eqBChE” value is 3.3 and the IC50 was found to be 19.8 ± 1.2 µM. In addition, the concentration for a half-maximal effect (EC50) in data set [3] was determined as 6.6 ± 0.24 µM.

Take `Cc1cccc2cc(-c3cc(O)cc(O)c3)oc12` [Compound 19]: the IC50 in data set [1] is over 100 µM; in data set [2], 10 ± 0.96 µM. The “Selectivity to eqBChE” value in data set [2] is over 10.0. The molecule further gave an EC50 in data set [3] of 19.3 ± 1.43 µM.

In the case of `Oc1cc(-c2cc3ccccc3o2)cc(O)c1O` [Compound 28], in data set [1], the “cholinesterase inhibitory activity (EeAChE)” value is reported as “did not exert any cholinesterase inhibitory activity” and the IC50 is over 100 µM. In data set [2], the “cholinesterase inhibitory activity (eqBChE)” value is reported as “did not exert any cholinesterase inhibitory activity” and the IC50 was over 100 µM. The same molecule displayed an EC50 in data set [3] of 52.8 ± 2.43 µM.

For the molecule `Oc1cc(-c2cc3cccc(Br)c3o2)cc(O)c1O` [Compound 24], the IC50 is 37 ± 2.6 µM in data set [1] and 18.4 ± 0.93 µM in data set [2]. In data set [2], the “Selectivity to eqBChE” value was determined as 2.0. The same molecule showed an EC50 in data set [3] of 15.4 ± 0.81 µM.

Consider `Oc1cc(O)cc(-c2cc3cc(Br)ccc3o2)c1` [Compound 18], for which, in data set [1], the IC50 came out at 66 ± 4.2 µM. In addition, in data set [2], the “Selectivity to eqBChE” value is listed as 2.2 and 30 ± 2.7 µM corresponded to half-maximal inhibition (IC50). For the same molecule, the half-maximal effective concentration (EC50) in data set [3] came to 17.5 ± 0.93 µM.

`Oc1cc(O)cc(-c2cc3cc(Cl)ccc3o2)c1` [Compound 16]: the IC50 in data set [1] is 80 ± 7.3 µM. Further, in data set [2], the “Selectivity to eqBChE” value is reported as 2.2 and the IC50 was 36.6 ± 2.9 µM. The same molecule returned an EC50 in data set [3] of 17.6 ± 0.82 µM.

`COc1ccc2c3c1O[C@H]1C[C@@H](O)C=C[C@@]31CCN(C)C2` [Galantamine]: the IC50 in data set [7] was […].

Turning to `Cc1ccc2oc(-c3cc(O)c(O)c(O)c3)cc2c1` [Compound 27], the IC50 in data set [1] is at least 100 µM; in data set [2], 16.1 ± 1.05 µM. For the same molecule, the “Selectivity to eqBChE” value in data set [2] is given as over 6.2. In data set [3], this molecule returned an EC50 of 8.93 ± 0.57 µM.

On to `Oc1cc(-c2cc3cccc(Cl)c3o2)cc(O)c1O` [Compound 22], for which the figures for the IC50 in data set [1] and in data set [2] were 50 ± 3.3 µM and 25.7 ± 1.6 µM, respectively. For the same molecule, the “Selectivity to eqBChE” value in data set [2] is recorded as 1.9. This molecule returned an EC50 in data set [3] of 26.3 ± 1.46 µM.

For the molecule `Oc1cc(O)cc(-c2cc3cccc(Cl)c3o2)c1` [Compound 15], the IC50 in data set [1] is at least 100 µM. Also, in data set [2], the “Selectivity to eqBChE” value was over 16.0 and half-maximal inhibition (IC50) required 6.23 ± 0.43 µM. In data set [4], the IC50 worked out at 27.5 ± 1.82 µM and the “hBChE inhibitory activity, times more active than galantamine” value turned out to be 2 times. In data set [5], the type of inhibition result is “mixed-type inhibitor”, the “KIS (binding with the enzyme-substrate complex)” value was found to be 8.66 µM and the Ki amounted to 13.9 µM. In addition, the EC50 in data set [3] came to 14.9 µM. In data set [6], the cytotoxic effect entry is “no considerable cytotoxic effect”.

`Cc1c(C)c2c(c(C)c1O)CCC(C)(C(=O)O)O2` (stereo not drawn) [Trolox, reference compound] returned an EC50 in data set [3] of 13 ± 1.1 µM.
